In article PMC12061237, “Berberine is a Novel Mitochondrial Calcium Uniporter Inhibitor that Disrupts MCU‐EMRE Assembly” (Advanced Science, 2025):

Biological target: T1, GST-MCU (recombinant) (Homo sapiens, UniProt Q8NE86)
T1 construct: recombinant GST fusion
T1 sequence (Q8NE86 51-351): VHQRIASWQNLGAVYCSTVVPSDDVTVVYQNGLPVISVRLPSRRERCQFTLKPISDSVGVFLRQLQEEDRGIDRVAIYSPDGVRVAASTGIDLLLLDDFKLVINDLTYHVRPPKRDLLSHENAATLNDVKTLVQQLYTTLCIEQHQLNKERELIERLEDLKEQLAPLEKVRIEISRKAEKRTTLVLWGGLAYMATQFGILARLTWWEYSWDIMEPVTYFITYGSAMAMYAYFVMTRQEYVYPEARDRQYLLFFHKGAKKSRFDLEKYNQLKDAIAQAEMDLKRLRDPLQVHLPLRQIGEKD
Assay: in vitro biotin pull-down, immunoblot
Assay type: binding
Conditions: biotin-labelled compound 2 µg, 4 °C; competed by free berberine

SMILES: COc1ccc2cc3[n+](cc2c1OC(=O)CCCCCNC(=O)CCCC[C@@H]1SC[C@@H]2NC(=O)N[C@@H]21)CCc1cc2c(cc1-3)OCO2 [Biotin-Berberine]
- in vitro biotin pull-down, immunoblot: Biotin‐BBR directly binds to recombinant glutathione‐S‐transferase (GST)‐MCU
